PMC6886798, “Expression of myeloid Src-family kinases is associated with poor prognosis in AML and influences Flt3-ITD kinase inhibitor acquired resistance” (PLoS ONE, 2019)

Legend:
Test in all cases: KINOMEscan
Format in all cases: binding
Details in all cases: 1.0 µM
[1] = target: T1, RET(M918T) (Homo sapiens, UniProt P07949, M918T)
T1 construct: purchased Eurofins/DiscoverX KINOMEscan scanMAX
Procedure: (§1) Kinase retention to the immobilized ligand is then measured using quantitative real-time PCR for each kinase-specific DNA barcode.

[2] = target: T2, PCTK3 (Homo sapiens, UniProt Q07002)
T2 construct: purchased Eurofins/DiscoverX KINOMEscan scanMAX
Procedure: as §1

[3] = target: T3, DDR2 (Homo sapiens, UniProt Q16832)
T3 construct: purchased Eurofins/DiscoverX KINOMEscan scanMAX
Procedure: as §1

[4] = target: T4, RSK1(Kin.Dom.1-N-terminal) (Homo sapiens, UniProt Q15418)
T4 construct: RSK1(Kin.Dom.1-N-terminal); purchased Eurofins/DiscoverX KINOMEscan scanMAX
Procedure: as §1

[5] = target: T5, KIT-autoinhibited (Homo sapiens, UniProt P10721)
T5 construct: purchased Eurofins/DiscoverX KINOMEscan scanMAX
T5 sequence (P10721 26-976): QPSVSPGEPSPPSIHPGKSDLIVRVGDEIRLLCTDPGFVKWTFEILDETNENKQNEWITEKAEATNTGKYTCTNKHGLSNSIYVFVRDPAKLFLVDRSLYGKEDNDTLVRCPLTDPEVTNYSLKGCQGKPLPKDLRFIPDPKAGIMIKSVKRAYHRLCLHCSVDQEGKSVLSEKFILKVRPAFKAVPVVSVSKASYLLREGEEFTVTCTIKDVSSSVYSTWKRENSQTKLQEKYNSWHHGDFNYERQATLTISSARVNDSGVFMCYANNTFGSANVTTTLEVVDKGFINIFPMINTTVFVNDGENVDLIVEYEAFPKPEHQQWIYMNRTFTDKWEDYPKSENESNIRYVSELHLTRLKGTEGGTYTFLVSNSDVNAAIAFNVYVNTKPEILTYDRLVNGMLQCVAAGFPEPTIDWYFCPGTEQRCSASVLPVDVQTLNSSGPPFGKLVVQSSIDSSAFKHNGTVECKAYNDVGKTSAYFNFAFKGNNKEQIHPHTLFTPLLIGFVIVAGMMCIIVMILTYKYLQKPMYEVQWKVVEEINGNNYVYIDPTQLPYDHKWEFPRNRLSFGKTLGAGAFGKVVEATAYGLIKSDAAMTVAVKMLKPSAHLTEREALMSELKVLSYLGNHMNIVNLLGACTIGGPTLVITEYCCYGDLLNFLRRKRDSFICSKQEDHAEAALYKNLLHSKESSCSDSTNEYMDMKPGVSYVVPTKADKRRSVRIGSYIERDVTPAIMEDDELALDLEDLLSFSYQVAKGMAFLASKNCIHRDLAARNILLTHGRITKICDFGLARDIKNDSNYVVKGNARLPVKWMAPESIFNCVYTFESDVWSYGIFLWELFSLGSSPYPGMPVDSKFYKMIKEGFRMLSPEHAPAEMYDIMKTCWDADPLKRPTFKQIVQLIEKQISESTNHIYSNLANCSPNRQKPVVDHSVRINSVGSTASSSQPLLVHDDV
Procedure: as §1

[6] = target: T6, CASK (Homo sapiens, UniProt O14936)
T6 construct: purchased Eurofins/DiscoverX KINOMEscan scanMAX
Procedure: as §1

[7] = target: T7, YES (Homo sapiens, UniProt P07947)
T7 construct: purchased Eurofins/DiscoverX (KINOMEscan scanMAX service)
T7 sequence (P07947 whole entry): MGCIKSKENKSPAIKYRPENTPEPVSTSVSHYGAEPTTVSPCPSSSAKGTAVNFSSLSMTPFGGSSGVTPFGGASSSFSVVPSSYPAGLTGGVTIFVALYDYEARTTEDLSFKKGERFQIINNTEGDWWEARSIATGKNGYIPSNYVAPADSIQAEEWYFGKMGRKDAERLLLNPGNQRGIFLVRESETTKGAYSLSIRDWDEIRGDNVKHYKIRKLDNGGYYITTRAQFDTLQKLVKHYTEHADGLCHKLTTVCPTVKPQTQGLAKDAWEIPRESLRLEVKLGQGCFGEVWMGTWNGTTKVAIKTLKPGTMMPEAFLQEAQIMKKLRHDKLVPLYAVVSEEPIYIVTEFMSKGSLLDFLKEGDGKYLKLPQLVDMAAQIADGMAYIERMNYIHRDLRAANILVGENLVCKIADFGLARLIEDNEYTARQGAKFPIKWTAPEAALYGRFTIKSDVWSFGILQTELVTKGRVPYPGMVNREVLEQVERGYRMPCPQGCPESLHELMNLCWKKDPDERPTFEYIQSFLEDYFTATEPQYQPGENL
Procedure: as §1

[8] = target: T8, IGF1R (Homo sapiens, UniProt P08069)
T8 construct: purchased Eurofins/DiscoverX KINOMEscan scanMAX
Procedure: as §1

[9] = target: T9, PIM3 (Homo sapiens, UniProt Q86V86)
T9 construct: purchased Eurofins/DiscoverX KINOMEscan scanMAX
Procedure: as §1

[10] = target: T10, PKAC-beta (Homo sapiens, UniProt P22694)
T10 construct: purchased Eurofins/DiscoverX KINOMEscan scanMAX
Procedure: as §1

[11] = target: T11, MKNK1 (Homo sapiens, UniProt Q9BUB5)
T11 construct: purchased Eurofins/DiscoverX KINOMEscan scanMAX
Procedure: as §1

[12] = target: T12, MAP3K3 (Homo sapiens, UniProt Q99759)
T12 construct: purchased Eurofins/DiscoverX KINOMEscan scanMAX
Procedure: as §1

[13] = target: T13, IKK-epsilon (Homo sapiens, UniProt Q14164)
T13 construct: purchased Eurofins/DiscoverX KINOMEscan scanMAX
T13 sequence (Q14164 whole entry): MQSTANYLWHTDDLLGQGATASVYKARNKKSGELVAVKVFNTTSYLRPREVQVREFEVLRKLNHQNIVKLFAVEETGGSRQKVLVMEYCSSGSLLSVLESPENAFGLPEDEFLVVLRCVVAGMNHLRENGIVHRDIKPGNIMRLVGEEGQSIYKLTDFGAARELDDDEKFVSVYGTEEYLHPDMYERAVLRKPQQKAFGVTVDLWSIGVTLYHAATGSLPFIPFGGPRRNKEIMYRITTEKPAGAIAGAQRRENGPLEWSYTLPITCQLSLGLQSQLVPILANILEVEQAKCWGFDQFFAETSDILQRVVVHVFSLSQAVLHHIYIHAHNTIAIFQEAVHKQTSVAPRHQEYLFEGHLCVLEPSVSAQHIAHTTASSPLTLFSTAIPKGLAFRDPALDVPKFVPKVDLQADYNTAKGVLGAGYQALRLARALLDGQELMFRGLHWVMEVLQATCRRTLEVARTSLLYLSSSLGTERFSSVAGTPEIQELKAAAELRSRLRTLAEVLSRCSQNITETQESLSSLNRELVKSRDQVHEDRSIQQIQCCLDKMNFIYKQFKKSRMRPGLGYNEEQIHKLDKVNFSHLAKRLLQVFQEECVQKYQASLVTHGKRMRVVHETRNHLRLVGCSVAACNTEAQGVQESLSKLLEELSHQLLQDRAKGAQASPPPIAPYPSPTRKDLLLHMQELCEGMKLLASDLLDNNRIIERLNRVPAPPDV
Procedure: as §1

[14] = target: T14, MAST1 (Homo sapiens, UniProt Q9Y2H9)
T14 construct: purchased Eurofins/DiscoverX KINOMEscan scanMAX
Procedure: as §1

[15] = target: T15, PKAC-alpha (Homo sapiens, UniProt P17612)
T15 construct: purchased Eurofins/DiscoverX KINOMEscan scanMAX
Procedure: as §1

[16] = target: T16, LIMK1 (Homo sapiens, UniProt P53667)
T16 construct: purchased Eurofins/DiscoverX KINOMEscan scanMAX
Procedure: as §1

[17] = target: T17, MTOR (Homo sapiens, UniProt P42345)
T17 construct: purchased Eurofins/DiscoverX KINOMEscan scanMAX
Procedure: as §1

[18] = target: T18, MELK (Homo sapiens, UniProt Q14680)
T18 construct: purchased Eurofins/DiscoverX KINOMEscan scanMAX
Procedure: as §1

[19] = target: T19, GRK1 (Homo sapiens, UniProt Q15835)
T19 construct: purchased Eurofins/DiscoverX KINOMEscan scanMAX
T19 sequence (Q15835 whole entry): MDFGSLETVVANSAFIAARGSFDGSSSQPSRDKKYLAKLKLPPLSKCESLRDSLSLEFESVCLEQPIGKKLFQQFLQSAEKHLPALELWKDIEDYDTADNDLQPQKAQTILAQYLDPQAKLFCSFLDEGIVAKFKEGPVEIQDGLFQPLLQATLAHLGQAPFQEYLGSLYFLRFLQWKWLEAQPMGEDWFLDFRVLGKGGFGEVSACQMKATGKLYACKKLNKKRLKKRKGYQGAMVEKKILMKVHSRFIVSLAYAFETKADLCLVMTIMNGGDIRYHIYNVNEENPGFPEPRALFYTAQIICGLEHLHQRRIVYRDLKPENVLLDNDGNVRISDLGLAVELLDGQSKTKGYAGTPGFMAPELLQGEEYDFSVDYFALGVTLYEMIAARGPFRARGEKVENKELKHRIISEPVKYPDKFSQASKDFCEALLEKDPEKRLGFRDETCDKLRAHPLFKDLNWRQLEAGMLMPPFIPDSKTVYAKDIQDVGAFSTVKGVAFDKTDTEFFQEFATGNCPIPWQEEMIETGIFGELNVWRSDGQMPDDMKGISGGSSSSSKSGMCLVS
Procedure: as §1

[20] = target: T20, PLK2 (Homo sapiens, UniProt Q9NYY3)
T20 construct: purchased Eurofins/DiscoverX KINOMEscan scanMAX
Procedure: as §1

[21] = target: T21, PRKCH (Homo sapiens, UniProt P24723)
T21 construct: purchased Eurofins/DiscoverX KINOMEscan scanMAX
Procedure: as §1

[22] = target: T22, FGR (Homo sapiens, UniProt P09769)
T22 construct: purchased Eurofins/DiscoverX KINOMEscan scanMAX
Procedure: as §1

[23] = target: T23, PHKG2 (Homo sapiens, UniProt P15735)
T23 construct: purchased Eurofins/DiscoverX KINOMEscan scanMAX
Procedure: as §1

[24] = target: T24, PIK3CA(I800L) (Homo sapiens, UniProt P42336, I800L)
T24 construct: purchased Eurofins/DiscoverX KINOMEscan scanMAX
Procedure: as §1

[25] = target: T25, EPHA4 (Homo sapiens, UniProt P54764)
T25 construct: purchased Eurofins/DiscoverX KINOMEscan scanMAX
Procedure: as §1

[26] = target: T26, RIPK2 (Homo sapiens, UniProt O43353)
T26 construct: purchased Eurofins/DiscoverX KINOMEscan scanMAX
Procedure: as §1

[27] = target: T27, EPHB3 (Homo sapiens, UniProt P54753)
T27 construct: purchased Eurofins/DiscoverX KINOMEscan scanMAX
Procedure: as §1

[28] = target: T28, TAK1 (Homo sapiens, UniProt O43318)
T28 construct: purchased Eurofins/DiscoverX KINOMEscan scanMAX
Procedure: as §1

[29] = target: T29, ERK1 (Homo sapiens, UniProt P27361)
T29 construct: purchased Eurofins/DiscoverX KINOMEscan scanMAX
Procedure: as §1

[30] = target: T30, CDK7 (Homo sapiens, UniProt P50613)
T30 construct: purchased Eurofins/DiscoverX KINOMEscan scanMAX
T30 sequence (P50613 whole entry): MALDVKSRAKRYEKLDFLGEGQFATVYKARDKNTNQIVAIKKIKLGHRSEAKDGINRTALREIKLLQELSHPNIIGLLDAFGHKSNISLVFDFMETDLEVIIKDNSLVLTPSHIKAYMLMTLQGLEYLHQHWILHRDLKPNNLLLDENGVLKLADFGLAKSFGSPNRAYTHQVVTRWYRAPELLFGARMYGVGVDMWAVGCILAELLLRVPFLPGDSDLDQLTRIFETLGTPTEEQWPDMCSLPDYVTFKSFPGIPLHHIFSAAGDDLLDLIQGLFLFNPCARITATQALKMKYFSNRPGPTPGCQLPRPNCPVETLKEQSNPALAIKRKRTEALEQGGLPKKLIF
Procedure: as §1

[31] = target: T31, PFTK1 (Homo sapiens, UniProt O94921)
T31 construct: purchased Eurofins/DiscoverX KINOMEscan scanMAX
Procedure: as §1

[32] = target: T32, SRPK1 (Homo sapiens, UniProt Q96SB4)
T32 construct: purchased Eurofins/DiscoverX KINOMEscan scanMAX
Procedure: as §1

[33] = target: T33, GSK3B (Homo sapiens, UniProt P49841)
T33 construct: purchased Eurofins/DiscoverX KINOMEscan scanMAX
Procedure: as §1

[34] = target: T34, NEK5 (Homo sapiens, UniProt Q6P3R8)
T34 construct: purchased Eurofins/DiscoverX KINOMEscan scanMAX
T34 sequence (Q6P3R8 whole entry): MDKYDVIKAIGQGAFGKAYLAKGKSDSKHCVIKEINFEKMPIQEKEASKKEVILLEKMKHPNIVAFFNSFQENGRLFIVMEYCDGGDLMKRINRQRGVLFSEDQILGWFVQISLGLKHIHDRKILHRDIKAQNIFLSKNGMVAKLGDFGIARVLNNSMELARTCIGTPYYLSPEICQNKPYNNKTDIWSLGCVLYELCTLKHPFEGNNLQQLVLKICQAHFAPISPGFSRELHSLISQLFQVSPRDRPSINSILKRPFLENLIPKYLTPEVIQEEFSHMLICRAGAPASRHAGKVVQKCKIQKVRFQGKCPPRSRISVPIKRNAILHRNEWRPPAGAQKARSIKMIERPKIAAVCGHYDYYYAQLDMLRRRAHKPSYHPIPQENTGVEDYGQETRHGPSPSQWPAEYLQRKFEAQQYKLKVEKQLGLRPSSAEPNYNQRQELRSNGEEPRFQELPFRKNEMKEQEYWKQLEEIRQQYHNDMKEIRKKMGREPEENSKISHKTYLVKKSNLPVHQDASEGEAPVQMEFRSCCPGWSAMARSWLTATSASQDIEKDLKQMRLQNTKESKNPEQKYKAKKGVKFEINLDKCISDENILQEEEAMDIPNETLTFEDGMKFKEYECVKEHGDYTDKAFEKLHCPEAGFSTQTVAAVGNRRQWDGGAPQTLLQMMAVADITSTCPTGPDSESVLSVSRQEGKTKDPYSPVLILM
Procedure: as §1

[35] = target: T35, PFPK5(P.falciparum) (Plasmodium falciparum, UniProt P61075)
T35 construct: purchased Eurofins/DiscoverX KINOMEscan scanMAX
Procedure: as §1

[36] = target: T36, TSSK1B (Homo sapiens, UniProt Q9BXA7)
T36 construct: DNA tag (qPCR barcode); purchased Eurofins/DiscoverX KINOMEscan scanMAX
Procedure: as §1

[37] = target: T37, TNK2 (Homo sapiens, UniProt Q07912)
T37 construct: purchased Eurofins/DiscoverX KINOMEscan scanMAX
T37 sequence (Q07912 whole entry): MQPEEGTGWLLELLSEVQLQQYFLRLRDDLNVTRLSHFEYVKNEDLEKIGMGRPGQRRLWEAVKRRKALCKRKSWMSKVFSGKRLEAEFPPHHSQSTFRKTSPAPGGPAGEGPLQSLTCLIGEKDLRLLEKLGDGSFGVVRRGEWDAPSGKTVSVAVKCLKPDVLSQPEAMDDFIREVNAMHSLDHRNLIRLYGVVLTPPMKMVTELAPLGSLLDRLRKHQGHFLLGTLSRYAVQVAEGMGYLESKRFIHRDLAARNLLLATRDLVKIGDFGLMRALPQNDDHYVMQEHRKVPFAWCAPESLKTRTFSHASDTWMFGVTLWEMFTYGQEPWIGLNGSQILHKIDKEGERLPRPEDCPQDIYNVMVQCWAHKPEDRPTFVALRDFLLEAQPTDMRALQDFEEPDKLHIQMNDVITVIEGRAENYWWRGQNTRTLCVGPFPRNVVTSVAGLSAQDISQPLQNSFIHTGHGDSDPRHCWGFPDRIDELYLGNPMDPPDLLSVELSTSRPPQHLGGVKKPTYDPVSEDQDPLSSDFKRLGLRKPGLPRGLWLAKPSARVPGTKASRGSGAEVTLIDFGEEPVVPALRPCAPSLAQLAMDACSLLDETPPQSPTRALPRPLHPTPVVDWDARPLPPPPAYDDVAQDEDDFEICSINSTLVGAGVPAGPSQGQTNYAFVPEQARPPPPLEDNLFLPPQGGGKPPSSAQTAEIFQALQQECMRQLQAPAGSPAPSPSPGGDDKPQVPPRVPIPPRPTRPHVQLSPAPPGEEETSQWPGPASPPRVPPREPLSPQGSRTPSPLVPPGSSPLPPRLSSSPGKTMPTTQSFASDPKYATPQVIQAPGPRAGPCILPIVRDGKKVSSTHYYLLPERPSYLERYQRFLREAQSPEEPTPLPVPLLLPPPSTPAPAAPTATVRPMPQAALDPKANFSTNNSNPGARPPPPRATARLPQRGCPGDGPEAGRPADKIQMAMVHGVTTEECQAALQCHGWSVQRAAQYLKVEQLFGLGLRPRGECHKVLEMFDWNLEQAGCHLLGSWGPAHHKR
Procedure: as §1

[38] = target: T38, MKNK2 (Homo sapiens, UniProt Q9HBH9)
T38 construct: purchased Eurofins/DiscoverX KINOMEscan scanMAX
Procedure: as §1

[39] = target: T39, CDK4-cyclinD3 (Homo sapiens, UniProt P11802)
T39 construct: purchased Eurofins/DiscoverX KINOMEscan scanMAX
Procedure: as §1

[40] = target: T40, PRKCE (Homo sapiens, UniProt Q02156)
T40 construct: purchased Eurofins/DiscoverX KINOMEscan scanMAX
Procedure: as §1

[41] = target: T41, RSK4(Kin.Dom.2-C-terminal) (Homo sapiens, UniProt Q9UK32)
T41 construct: RSK4(Kin.Dom.2-C-terminal); purchased Eurofins/DiscoverX KINOMEscan scanMAX
Procedure: as §1

Structure (SMILES): CN1CCN(C2CCC(n3cc(-c4ccc(Oc5ccccc5)cc4)c4c(N)ncnc43)CC2)CC1 (centres unmarked) [A-419259]
- % Control [1]: 0.1%
- % Control [2]: 100%
- % Control [3]: 59%
- % Control [4]: 8.4%
- % Control [5]: 6.9%
- % Control [6]: 67%
- % Control [7]: 0%
- % Control [8]: 80%
- % Control [9]: 100%
- % Control [10]: 100%
- % Control [11]: 63%
- % Control [12]: 6.3%
- % Control [13]: 100%
- % Control [14]: 64%
- % Control [15]: 100%
- % Control [16]: 31%
- % Control [17]: 90%
- % Control [18]: 21%
- % Control [19]: 100%
- % Control [20]: 77%
- % Control [21]: 87%
- % Control [22]: 0.85%
- % Control [23]: 100%
- % Control [24]: 98%
- % Control [25]: 100%
- % Control [26]: 3.6%
- % Control [27]: 100%
- % Control [28]: 77%
- % Control [29]: 100%
- % Control [30]: 28%
- % Control [31]: 63%
- % Control [32]: 100%
- % Control [33]: 95%
- % Control [34]: 100%
- % Control [35]: 78%
- % Control [36]: 100%
- % Control [37]: 1.1%
- % Control [38]: 8.3%
- % Control [39]: 81%
- % Control [40]: 88%
- % Control [41]: 94%
